From US11773086B2, “Fungal modulators” (TRUSTEES OF BOSTON UNIVERSITY, priority 2020, dated 2023) come the findings set out here.

Test [1] has as its system C. auris. In words: Dose-response of other antifungal compounds with or without 50 μM azoffluxin. The test is classed as cell-based, Candida auris. The following applies: 48 hours, YPD. The protocol: FIGS. 7A and 7B illustrates that azoffluxin potentiates intracellular acting compounds against C. auris, to a similar degree as deletion of CDR1. […] Cells were then imaged on the DIC and DsRed channels at equivalent exposure times as those in FIG. 5A. FIG. 7B depicts a dose response assays conducted with a C. auris parental strain in the absence and presence of 50 μM azoffluxin where indicated, as well as with a strain with the efflux pump gene CDR1 deleted. Indicated compounds were titered in a two-fold dilution on the x-axis. Growth was measured after 48 hours in YPD using OD600 and normalized to a no drug control well (see color bar).
Compound potency was assessed alone by dose response assays or in combination with another compound by dose-response matrixes in 96-well plates, or 384-well, flat-bottom, microtiter plates (Corning) as previously described. Plates were incubated at 30° C. for the indicated time period. Growth was quantified by measuring OD600 and corrected for medium background. All strains were assessed in biological duplicate experiments with technical duplicates. Growth was normalized to untreated controls and plotted as a heat map using Java TreeView 1.1.6r4. For dose-response matrixes fractional inhibitory concentration index at 90% growth inhibition (FICI90) was calculated as previously described. […]

In test [2] the test system is C. auris. In words: Intracellular fluconazole and azoffluxin detection by LC-MS. The test is classed as cell-based, Candida auris. The settings on record: combination treatment vs high fluconazole alone, 1 hour. An excerpt:
FIGS. 3A-3B, and 4A-4B illustrate azoffluxin increases fluconazole (FLC) bioavailability by inhibiting Cdr1-mediated efflux in C. auris, as described above. FIG. 3A depicts the relative abundance of specific sterols determined in C. auris after an 18-hour treatment with the respective compounds (⋅ indicates combo treatment concentrations) using LC-MS. Values are plotted relative to the internal standard of cholesterol and error bars indicate standard deviation between technical triplicates. Significance was determined by an unpaired student t-test of each condition to untreated, (*) indicates a p-value<0.05 and (**) indicates a p-value<0.01. FIG. 3B depicts the intracellular concentrations of FLC and azoffluxin measured after treatment for 1 hour (conditions as in FIG. 3A) Error bars indicate standard deviation between technical triplicates. Significance was determined by an unpaired student t-test, (**) indicates a p-value<0.01. FIG. 4A depicts the quantified relative expression of a panel of putative efflux pumps in C. auris Ci6684. Expression of CDR1 (B9J08_000164), MDR1 (B9J08_003981), CDR4-1 (B9J08_000479), CDR4-2 (B9J08_002451), SNQ2-1 (B9J08_001125), and SNQ2-2 (B9J08_004452) was measured by RT-qPCR. […] FIG. 4B depicts expression of CDR1 (B9J08_000164) and CDR4-1 (B9J08_000479) measured by quantitative real-time PCR (RT-qPCR). […]

The subject of a further test is C. auris B11801. In words: Kidney fungal burden (CFU) in infected mice. The test is classed as in vivo. The following applies: azoffluxin 10 mg/Kg SC four-times daily + fluconazole 32 mg/Kg IP twice daily, four days. The protocol:
FIG. 10A depicts mammalian embryonic kidney (293T) cells expressing luciferase used to quantify mammalian cell growth in co-culture. Mammalian cells were seeded in 384-well plates in DMEM medium at 5×10^5 cells/mL overnight. After 24 hours the indicated concentration of compound (⋅ indicates combo treatment concentrations) was added along with 2.5×10^3 cells/mL of C. auris. Co-cultures were incubated for 48 hours at 37° C. and then the luminescence was measured as an output of mammalian cell growth. […] FIG. 10C depicts checkerboard assays performed as described in FIG. 2B with C. auris Clade IV isolate B11801. Relative growth was measured after 24 hours using OD600 and normalized to no-drug control wells (see color bar). The FICI calculated for each checkerboard is shown in the top right of each plot, with values<0.5 indicating synergy. […] Input is the CFU recovered in an aliquot of the fungal suspension use to inoculate mice. […] Fluconazole was administered at 32 mg/Kg IP twice daily and azoffluxin at 10 mg/Kg SC four-times daily. Error bars; SD, n=3 mice/treatment group.

As for `C=C(C)C[C@@H](O)COc1cc2c(cc1C1(c3cc4c(cc3OC[C@H](O)CC(=C)C)OCO4)C(=O)Nc3cc(F)ccc31)OCO2` [CMLD012336], in the test on C. auris [1], the “sensitivity to caspofungin and amphotericin B” value is recorded as “no impact on sensitivity”; the “sensitization to gepinacin, cerulenin, and cycloheximide” value was “to the same extent as CDR1 deletion”. Also, the “increase in intracellular fluconazole” value in the test on C. auris [2] is listed as approximately 2.5 fold. In addition, the “antifungal activity of fluconazole in mice (kidney CFU)” value with C. auris B11801 is listed as “markedly increases the antifungal activity of fluconazole”.
